Source: patent publication US11826466B2, “Bendamustine solution formulations” (Navinta, LLC, priority 2016, dated 2023)
Counter-ions that a name gives are not always drawn.

What was measured:
[1] = Solubility of Bendamustine Hydrochloride in DMA
[2] = Solubility of Bendamustine Hydrochloride in DMA-Water Mixture; format: physicochemical; settings: organic solvent or mixture, thermodynamic from solid, 5° C.
Experimental: To 10 ml of DMA-water mixture, excess (˜2-3 g) of Bendamustine Hydrochloride hydrate was added and the mixture was stirred for 24 hr while keeping in a constant temperature bath. After 24 hr, the mixture was centrifuged to remove the undissolved solid and the supernatant was filtered through a 0.2 micron filter. The clear filtrate was assayed.

[3] = room temperature; reported in U.S. Pat. No. 8,344,006; cited from earlier work

| Compound | concentration of solutions in DMA made by adding water to DMA ([1]; DMA with added water) | solubility ([1]; DMA, 2 °C, organic solvent or mixture) [mg/mL] | solubility at 24 h ([2]; DMA:Water 60:40) [mg/mL] | solubility at 24 h ([2]; DMA:Water 80:20) [mg/mL] | solubility at 24 h ([2]; DMA:Water 90:10) [mg/mL] | solubility at 24 h ([2]; DMA:Water 95:5) [mg/mL] | solubility at 24 h ([2]; DMA:Water 97:3) [mg/mL] | solubility at 24 h ([2]; DMA) [mg/mL] | solubility in DMA [3] |
| --- | --- | --- | --- | --- | --- | --- | --- | --- | --- |
| Cn1c(CCCC(=O)O)nc2cc(N(CCCl)CCCl)ccc21 [Bendamustine Hydrochloride hydrate] | up to 200 mg/mL | ~65 | 67 | 169 | 201 | 114 | 116 | 72 | – |
| Cn1c(CCCC(=O)O)nc2cc(N(CCCl)CCCl)ccc21 [Bendamustine Hydrochloride] | – | – | – | – | – | – | – | – | about 56 mg/mL |
